Consider 18 compounds from US11976083B2, “Inhibitors of peptidylarginine deiminases” (Gilead Sciences, Inc., priority 2020, dated 2024).

The target of the assay is T1, human PAD4 (Homo sapiens, UniProt Q9UM07).
T1 construct: human PAD4 (NM_012387), A2-P663, was PCR amplified; His-SUMO (N, cleaved yes); made in house; host or cells: E. coli BL21(DE3)
T1 sequence (Q9UM07 2-663): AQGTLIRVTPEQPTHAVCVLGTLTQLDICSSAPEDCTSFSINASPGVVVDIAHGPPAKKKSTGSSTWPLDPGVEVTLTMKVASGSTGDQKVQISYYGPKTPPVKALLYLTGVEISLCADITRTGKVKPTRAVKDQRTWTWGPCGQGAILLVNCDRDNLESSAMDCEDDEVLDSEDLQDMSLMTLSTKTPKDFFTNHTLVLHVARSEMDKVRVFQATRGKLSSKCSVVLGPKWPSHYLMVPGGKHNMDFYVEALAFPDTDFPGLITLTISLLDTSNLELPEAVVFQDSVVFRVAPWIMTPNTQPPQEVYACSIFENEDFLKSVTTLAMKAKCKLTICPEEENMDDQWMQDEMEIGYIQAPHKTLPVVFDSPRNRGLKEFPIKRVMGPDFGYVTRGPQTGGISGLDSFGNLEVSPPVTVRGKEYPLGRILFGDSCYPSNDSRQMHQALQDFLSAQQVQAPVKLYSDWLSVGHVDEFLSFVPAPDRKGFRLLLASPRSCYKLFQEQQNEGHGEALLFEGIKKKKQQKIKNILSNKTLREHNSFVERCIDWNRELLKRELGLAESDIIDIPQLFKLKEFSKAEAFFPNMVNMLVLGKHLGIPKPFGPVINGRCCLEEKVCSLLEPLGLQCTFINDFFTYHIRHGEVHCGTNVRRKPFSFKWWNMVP
As to the kind of experiment: In vitro PAD4 BAEE biochemical assay. Conditions: BAEE substrate 3 mM, 5 nM PAD4, 2 mM calcium chloride; geometric mean of multiple experiments. The procedure, abridged: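 PAD4 5 nM, CaCl2 2 mM, BAEE 3 mM final; 50 mM MOPS pH 7.6, 50 mM NaCl, 0.05% Tween-20, 2 mM DTT. Cpd + enzyme 30 min 25 °C; substrate 2 h 25 °C; EDTA stop; OPA detection 1 h. IC50 4-parameter fit.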
Usually IC50 stands for the midpoint of a concentration-inhibition curve. As for `COc1cc(C(=O)N2CC[C@@H](OC)[C@@H](N)C2)cc2nc(-c3cc4ccc5nc4n3CCCCCc3cnc(C)nc3C(=O)N[C@@H]5C)n(C)c12` [Example 610, (2~{R})-17-[5-[(3~{S},4~ {R})-3-amino-4-methoxy-piperidine-1-carbonyl]-7-methoxy-1-methyl-benzimidazol-2-yl]-2,7-dimethyl-3,6,8,16,22-pentazatetracyclo[14.5.2.0^ {5,10}.0^{19,23}]tricosa-1(21),5(10),6,8,17,19,22-heptaen-4-one], the IC50 was determined as 190 nM.

As to `COc1cc(C(=O)N2CC[C@@H](OC)[C@@H](N)C2)cc2nc(-c3cc4ccc5nc4n3CCCCCCC3(COC3)C(=O)N[C@@H]5C)n(C)c12` [Example 611, (11~{R})-17-[5-[(3~{S}, 4-{R})-3-amino-4-methoxy-piperidine-1-carbonyl]-7-methoxy-1-methyl-benzimidazol-2-yl]-11-methyl-spiro[1,10,19-triazatricyclo[10.5.2.0^{15,18}]nonadeca-12,14,16,18-tetraene-8,3′-oxetane]-9-one], the IC50 was determined as 85 nM. Under `COc1cc(C(=O)N2CC[C@@H](OC(F)F)[C@@H](N)C2)cc2nc(-c3cc4ccc5nc4n3CCCCCc3nccnc3C(=O)N[C@@H]5C)n(C3CC3)c12` [Example 612, (2~{R})-17-[5-[(3~{S),4~{R})-3-amino-4-(difluoromethoxy)piperidine-1-carbonyl]-1-cyclopropyl-7-methoxy-benzimidazol-2-yl]-2-methyl-3,6,9,16,22-pentazatetracyclo [14.5.2.0^{5,10}.0^{19, 23}]tricosa-1(21),5(10), 6,8,17,19,22-heptaen-4-one] stands 157 nM. In the case of `COc1cc(C(=O)N2CC[C@@H](OC(F)F)[C@@H](N)C2)cc2nc(-c3cc4ccc5nc4n3CCCCCCC3(COC3)C(=O)N[C@@H]5C)n(C)c12` [Example 613, (11~{R})-17-[5-[(3~{S},4~{R})-3-amino-4-(difluoromethoxy)piperidine-1-carbonyl]-7-methoxy-1-methyl-benzimidazol-2-yl]-11-methyl-spiro[1,10,19-triazatricyclo[10.5.2.0^ {15,18}]nonadeca-12,14,16,18-tetraene-8,3′-oxetane]-9-one], the IC50 stood at 108 nM.

As for `COc1cc(C(=O)N2CC[C@@H](OC)[C@@H](N)C2)cc2nc(-c3cc4ccc5nc4n3CC(F)(F)CCCCC3(CCC3)C(=O)N[C@@H]5C)n(C)c12` [Example 614, (11~{R})-17-[5-[(3~{S},4~ {R})-3-amino-4-methoxy-piperidine-1-carbonyl]-7-methoxy-1-methyl-benzimidazol-2-yl]-3,3-difluoro-11-methyl-spiro[1,10,19-triazatricyclo[10.5.2.0^ {15,18}]nonadeca-12,14,16,18-tetraene-8,1′-cyclobutane]-9-one], the IC50 was determined as 114 nM. Then `COc1cc(C(=O)N[C@H]2CNCC[C@@H]2F)cc2nc(-c3cc4ccc5nc4n3CCCCCC[C@H](OC)C(=O)N[C@@H]5C)n(C)c12` [Example 615, ˜{N}-[(3˜{S},4˜{S})-4-fluoro-3-piperidyl]-7-methoxy-2-[(8˜{S},11˜{R})-8-methoxy-11-methyl-9-oxo-1,10,19-triazatricyclo[10.5.2.0^{15,18}]nonadeca-12(19),13,15(18),16-tetraen-17-yl]-1-methyl-benzimidazole-5-carboxamide], with 94 nM. Under `COc1cc(C(=O)N[C@H]2CNCC[C@@H]2F)cc2nc(-c3cc4ccc5nc4n3CCCOC[C@@H]3C[C@H]3C(=O)N[C@@H]5C)n(C)c12` [Example 616, ~{N}-[(3~{S},4~{S})-4-fluoro-3-piperidyl]-7-methoxy-1-methyl-2-[(2~{R},5~{R},7~{R})-2-methyl-4-oxo-9-oxa-3,13,19-triazatetracyclo[11.5.2.0^ {5,7}.0^{16,20}]icosa-1(19),14,16(20), 17-tetraen-14-yl] benzimidazole-5-carboxamide] stands 71 nM. As for `COc1cc(C(=O)N[C@H]2CNCC[C@@H]2F)cc2nc(-c3cc4ccc5nc4n3CCCCC[C@@]3(C)C[C@@H]3C(=O)N[C@@H]5C)n(C)c12` [Example 617, 2-[(2~{R},5~{S},7~{S})-2,7-dimethyl-4-oxo-3,13,19-triazatetracyclo[11.5.2.0^ {5,7}.0^{16,20}]icosa-1(19),14,16(20),17-tetraen-14-yl]-~{N}-[(3~ {S},4~{S})-4-fluoro-3-piperidyl]-7-methoxy-1-methyl-benzimidazole-5-carboxamide], the IC50 was found to be 1120 nM. Regarding `COc1cc(C(=O)N[C@H]2CNCC[C@@H]2F)cc2nc(-c3cc4ccc5nc4n3CCCCC[C@]3(C)C[C@H]3C(=O)N[C@@H]5C)n(C)c12` [Example 618, 2-[(2~{R},5~{R},7~{R})-2,7-dimethyl-4-oxo-3,13,19-triazatetracyclo[11.5.2.0^ {5,7}.0^{16,20}]icosa-1(19),14,16(20), 17-tetraen-14-yl]- ~{N}-[(3~{S},4~{S})-4-fluoro-3-piperidyl]-7-methoxy-1-methyl-benzimidazole-5-carboxamide], the IC50 turned out to be 69 nM. Then `COc1cc(C(=O)N[C@H]2CNCC[C@@H]2F)cc2nc(-c3cc4ccc5nc4n3C/C=C(/F)COCCC(=O)N[C@@H]5C)n(C)c12` [Example 619, 2-[(3~{E},11~{R})-4-fluoro-11-methyl-9-oxo-6-oxa-1,10,19-triazatricyclo[10.5.2.0^ {15,18}]nonadeca-3,12(19),13,15(18), 16-pentaen-17-yl]- ~{N}-[(3~{S},4~{S})-4-fluoro-3-piperidyl]-7-methoxy-1-methyl-benzimidazole-5-carboxamide], with 38 nM.

As for `COc1cc(C(=O)N2CCC[C@@H](N)C2)cc2nc(-c3cc4ccc5nc4n3C/C=C(/F)COCCC(=O)N[C@@H]5C)n(C)c12` [Example 620, (3~{E},11~{R})-17-[5-[(3~{R})-3-aminopiperidine-1-carbonyl]-7-methoxy-1-methyl-benzimidazol-2-yl]-4-fluoro-11-methyl-6-oxa-1,10,19-triazatricyclo[10.5.2.0^ {15,18}]nonadeca-3,12(19),13,15(18), 16-pentaen-9-one], the IC50 worked out at 36 nM.

Regarding `COc1cc(C(=O)N[C@H]2CNCC[C@@H]2F)cc2nc(-c3cc4ccc5nc4n3CCCCCC[C@@H](OC)C(=O)N[C@@H]5C)n(C)c12` [Example 621, ~{N}-[(3~{S},4~{S})-4-fluoro-3-piperidyl]-7-methoxy-2-[(8~{R},11~ {R})-8-methoxy-11-methyl-9-oxo-1,10,19-triazatricyclo[10.5.2.0^ {15,18}]nonadeca-12(19),13,15(18),16-tetraen-17-yl]-1-methyl-benzimidazole-5-carboxamide], the half-inhibitory concentration (IC50) stood at 43 nM. Then `C[C@H]1NC(=O)CCOC[C@@H]2C[C@@H]2Cn2c(-c3nc4cc(C(=O)N[C@H]5CNCC[C@@H]5F)c(F)cc4n3C3CC3)cc3ccc1nc32` [Example 622, 1-cyclopropyl-6-fluoro-~ {N}-[(3~{S},4~{S})-4-fluoro-3-piperidyl]-2-[(3~{S},5~{R},12~{R})-12-methyl-10-oxo-7-oxa-1,11,20-triazatetracyclo[11.5.2.0^ {3,5}.0^{16,19}]icosa-13(20),14,16(19), 17-tetraen-18-yl] benzimidazole-5-carboxamide], with 59 nM; and `CO[C@@H]1CCCCC(F)(F)Cn2c(-c3nc4cc(C(=O)N[C@H]5CNCC[C@@H]5F)c(F)cc4n3C)cc3ccc(nc32)[C@@H](C)NC1=O` [Example 623, 2-[(8~{R},11~{R})-3,3-difluoro-8-methoxy-11-methyl-9-oxo-1,10,19-triazatricyclo[10.5.2.0^ {15,18}]nonadeca-12(19),13,15(18),16-tetraen-17-yl]-6-fluoro-~{N}-[(3~{S}, 4~{S})-4-fluoro-3-piperidyl]-1-methyl-benzimidazole-5-carboxamide], with 47 nM; and `C[C@H]1NC(=O)[C@H]2C[C@@H]2CC(F)(F)CCCn2c(-c3nc4cc(C(=O)N[C@H]5CNCC[C@@H]5F)c(F)cc4n3C)cc3ccc1nc32` [Example 624, 2-[(2~{R},5~{S},7~{R})-9,9-difluoro-2-methyl-4-oxo-3,13,19-triazatetracyclo[11.5.2.0^ {5,7).0^{16,20}]icosa-1(19),14,16(20), 17-tetraen-14-yl]-6-fluoro-~{N}-[(3~{S},4~ {S})-4-fluoro-3-piperidyl]-1-methyl-benzimidazole-5-carboxamide], with 70 nM. Then `C[C@H]1NC(=O)[C@@H]2C[C@H]2CC(F)(F)CCCn2c(-c3nc4cc(C(=O)N[C@H]5CNCC[C@@H]5F)c(F)cc4n3C)cc3ccc1nc32` [Example 625, 2-[(2~{R},5~{R},7~{S})-9,9-difluoro-2-methyl-4-oxo-3,13,19-triazatetracyclo[11.5.2.0^ {5,7}.0^{16,20}]icosa-1(19),14,16(20),17-tetraen-14-yl]-6-fluoro-~ {N}-[(3~{S},4~{S})-4-fluoro-3-piperidyl]-1-methyl-benzimidazole-5-carboxamide], with 9 nM; and `C[C@H]1NC(=O)C(C)(C)CCCCCCn2c(-c3nc4cc(C(=O)N[C@H]5CNCC[C@@H]5F)c(F)cc4n3C(F)F)cc3ccc1nc32` [Example 626, 1-(difluoromethyl)-6-fluoro-˜{N}-[(3˜{S},4˜{S})-4-fluoro-3-piperidyl]-2-[(11˜{R})-8,8,11-trimethyl-9-oxo-1,10,19-triazatricyclo[10.5.2.0^{15,18}]nonadeca-12(19),13,15(18),16-tetraen-17-yl]benzimidazole-5-carboxamide], with 48 nM. Under `COc1cc(C(=O)N2CCC[C@@H](N)C2)cc2nc(-c3cc4ccc5nc4n3CCCCCc3nccnc3C(=O)N[C@@H]5C)n(C)c12` [Example 627, (2~{R})-17-[5-[(3~{R})-3-aminopiperidine-1-carbonyl]-7-methoxy-1-methyl-benzimidazol-2-yl]-2-methyl-3,6,9,16,22-pentazatetracyclo [14.5.2.0^{5,10}.0^{19,23}] tricosa-1(22),5(10), 6,8,17,19(23),20-heptaen-4-one] stands 49 nM.
